The source made the active and inactive calls. The calls are words filed in the database; no cut-off is given here.
What was measured:
MCF7 [1] = assay: Cell cycle arrest in human MCF7 cells assessed as accumulation at G2 phase at 3 uM after 24 hrs by propidium iodide/RNase A staining-based flow cytometric analysis (reference value: 30.62%); type: functional
MDA-MB-231 [2] = assay: Induction of apoptosis in human MDA-MB-231 cells assessed as late apoptotic cells at 2 uM after 48 hrs by Annexin-V-FITC/propidium iodide staining based flow cytometry (reference value: 2.38%); type: functional
[3] = molecular target: Epidermal growth factor receptor (Homo sapiens) (UniProt P00533); assay: Inhibition of EGFR phosphorylation at Y1068 residues in human MCF7 cells after 8 hrs by Western blot analysis; type: cell-based
MDA-MB-231 [4] = assay: Cell cycle arrest in human MDA-MB-231 cells assessed as accumulation at G2 phase at 6 uM after 24 hrs by propidium iodide/RNase A staining-based flow cytometric analysis (reference value: 27.76%); type: functional
MDA-MB-231 [5] = assay: Cell cycle arrest in human MDA-MB-231 cells assessed as accumulation at G1 phase at 6 uM after 24 hrs by propidium iodide/RNase A staining-based flow cytometric analysis (reference value: 49.17%); type: functional
MCF7 [6] = assay: Cell cycle arrest in human MCF7 cells assessed as accumulation at G2 phase at 6 uM after 24 hrs by propidium iodide/RNase A staining-based flow cytometric analysis (reference value: 30.62%); type: functional
MCF7 [7] = assay: Effect on total EGFR protein level in human MCF7 cells up to 12 uM after 8 hrs by Western blot analysis; type: ADME, cell-based; settings: mcf7, 8 h
MDA-MB-231 [8] = assay: Induction of apoptosis in human MDA-MB-231 cells assessed as increase in p53 expression at 3 to 12 uM after 48 hrs by Western blot analysis; type: functional, cell-based
MCF7 [9] = assay: Antimigratory activity against human MCF7 cells assessed as reduction in scratch healing after 72 hrs by microscopy based scratch wound assay; type: functional, cell-based
[10] = molecular target: Epidermal growth factor receptor (Homo sapiens) (UniProt P00533); assay: Inhibition of EGFR in human MCF7 cells assessed as reduction in phosphorylated PI3K expression after 8 hrs by Western blot analysis; type: cell-based
MDA-MB-231 [11] = assay: Induction of apoptosis in human MDA-MB-231 cells assessed as early apoptotic cells at 2 uM after 48 hrs by Annexin-V-FITC/propidium iodide staining based flow cytometry (reference value: 4.33%); type: functional
[12] = molecular target: Epidermal growth factor receptor (Homo sapiens) (UniProt P00533); assay: Inhibition of EGFR phosphorylation at Y992 residues in human MCF7 cells after 8 hrs by Western blot analysis; type: cell-based
[13] = molecular target: Epidermal growth factor receptor (Homo sapiens) (UniProt P00533); assay: Inhibition of EGFR phosphorylation at Y992 residues in human MDA-MB-231 cells after 8 hrs by Western blot analysis; type: cell-based
MDA-MB-231 [14] = assay: Effect on total AKT protein level in human MDA-MB-231 cells up to 12 uM after 8 hrs by Western blot analysis; type: ADME, cell-based; settings: mda-mb-231, 8 h
MDA-MB-231 [15] = assay: Effect on total EGFR protein level in human MDA-MB-231 cells up to 12 uM after 8 hrs by Western blot analysis; type: ADME, cell-based; settings: mda-mb-231, 8 h
MDA-MB-231 [16] = assay: Cell cycle arrest in human MDA-MB-231 cells assessed as accumulation at G2 phase at 3 uM after 24 hrs by propidium iodide/RNase A staining-based flow cytometric analysis (reference value: 27.76%); type: functional
MDA-MB-231 [17] = assay: Induction of apoptosis in human MDA-MB-231 cells assessed as necrotic cells at 2 uM after 48 hrs by Annexin-V-FITC/propidium iodide staining based flow cytometry (reference value: 1.21%); type: functional
MDA-MB-231 [18] = assay: Induction of apoptosis in human MDA-MB-231 cells assessed as increase in nuclear lysis up to 8 uM after 48 hrs by DAPI staining-based fluorescence microscopic method; type: functional, cell-based
MDA-MB-231 [19] = assay: Cell cycle arrest in human MDA-MB-231 cells assessed as accumulation at S phase at 12 uM after 24 hrs by propidium iodide/RNase A staining-based flow cytometric analysis (reference value: 23.07%); type: functional
MCF7 [20] = assay: Induction of apoptosis in human MCF7 cells assessed as early apoptotic cells at 6 uM after 48 hrs by Annexin-V-FITC/propidium iodide staining based flow cytometry (reference value: 3.05%); type: functional
MCF7 [21] = assay: Inhibition of colony formation in human MCF7 cells at 9 uM after 7 days by crystal violet staining based microscopic analysis; type: functional, cell-based
MDA-MB-231 [22] = assay: Cell cycle arrest in human MDA-MB-231 cells assessed as accumulation at G1 phase at 3 uM after 24 hrs by propidium iodide/RNase A staining-based flow cytometric analysis (reference value: 49.17%); type: functional
MDA-MB-231 [23] = assay: Induction of apoptosis in human MDA-MB-231 cells assessed as viable cells at 6 uM after 48 hrs by Annexin-V-FITC/propidium iodide staining based flow cytometry (reference value: 92.1%); type: functional; settings: MDA-MB-231, 48 h, read-out: Activity
MDA-MB-231 [24] = assay: Induction of apoptosis in human MDA-MB-231 cells assessed as early apoptotic cells at 4 uM after 48 hrs by Annexin-V-FITC/propidium iodide staining based flow cytometry (reference value: 4.33%); type: functional
MCF7 [25] = assay: Induction of apoptosis in human MCF7 cells assessed as increase in P53 expression at 3 to 12 uM after 48 hrs by Western blot analysis; type: functional, cell-based
MDA-MB-231 [26] = assay: Induction of apoptosis in human MDA-MB-231 cells assessed as downregulation of Bcl-2 protein expression at 3 to 12 uM after 48 hrs by Western blot analysis; type: functional, cell-based
MCF7 [27] = assay: Cell cycle arrest in human MCF7 cells assessed as accumulation at G1 phase at 12 uM after 24 hrs by propidium iodide/RNase A staining-based flow cytometric analysis (reference value: 52.21%); type: functional
MCF7 [28] = assay: Cell cycle arrest in human MCF7 cells assessed as accumulation at S phase at 3 uM after 24 hrs by propidium iodide/RNase A staining-based flow cytometric analysis (reference value: 17.17%); type: functional
MDA-MB-231 [29] = assay: Induction of apoptosis in human MDA-MB-231 cells assessed as late apoptotic cells at 6 uM after 48 hrs by Annexin-V-FITC/propidium iodide staining based flow cytometry (reference value: 2.38%); type: functional
MDA-MB-231 [30] = assay: Induction of apoptosis in human MDA-MB-231 cells assessed as increase in ROS generation up to 8 uM after 48 hrs by DHE dye-based fluorescence microscopic analysis; type: functional, cell-based
MCF7 [31] = assay: Induction of apoptosis in human MCF7 cells assessed as viable cells at 6 uM after 48 hrs by Annexin-V-FITC/propidium iodide staining based flow cytometry (reference value: 91.1%); type: functional; settings: MCF7, 48 h, read-out: Activity
MDA-MB-231 [32] = assay: Induction of apoptosis in human MDA-MB-231 cells assessed as viable cells at 2 uM after 48 hrs by Annexin-V-FITC/propidium iodide staining based flow cytometry (reference value: 92.1%); type: functional; settings: MDA-MB-231, 48 h, read-out: Activity
MCF7 [33] = assay: Induction of apoptosis in human MCF7 cells assessed as early apoptotic cells at 4 uM after 48 hrs by Annexin-V-FITC/propidium iodide staining based flow cytometry (reference value: 3.05%); type: functional
PC-3 = assay: Cytotoxicity against human PC3 cells assessed as reduction in cell viability after 72 hrs by MTT assay; type: functional, cell-based; settings: PC-3, 72 h
MDA-MB-231 [34] = assay: Effect on total PI3K protein level in human MDA-MB-231 cells up to 12 uM after 8 hrs by Western blot analysis; type: ADME, cell-based; settings: mda-mb-231, 8 h
MCF7 [35] = assay: Induction of apoptosis in human MCF7 cells assessed as necrotic cells at 2 uM after 48 hrs by Annexin-V-FITC/propidium iodide staining based flow cytometry (reference value: 1.57%); type: functional

Sequence of Epidermal growth factor receptor (Homo sapiens) (P00533 whole entry): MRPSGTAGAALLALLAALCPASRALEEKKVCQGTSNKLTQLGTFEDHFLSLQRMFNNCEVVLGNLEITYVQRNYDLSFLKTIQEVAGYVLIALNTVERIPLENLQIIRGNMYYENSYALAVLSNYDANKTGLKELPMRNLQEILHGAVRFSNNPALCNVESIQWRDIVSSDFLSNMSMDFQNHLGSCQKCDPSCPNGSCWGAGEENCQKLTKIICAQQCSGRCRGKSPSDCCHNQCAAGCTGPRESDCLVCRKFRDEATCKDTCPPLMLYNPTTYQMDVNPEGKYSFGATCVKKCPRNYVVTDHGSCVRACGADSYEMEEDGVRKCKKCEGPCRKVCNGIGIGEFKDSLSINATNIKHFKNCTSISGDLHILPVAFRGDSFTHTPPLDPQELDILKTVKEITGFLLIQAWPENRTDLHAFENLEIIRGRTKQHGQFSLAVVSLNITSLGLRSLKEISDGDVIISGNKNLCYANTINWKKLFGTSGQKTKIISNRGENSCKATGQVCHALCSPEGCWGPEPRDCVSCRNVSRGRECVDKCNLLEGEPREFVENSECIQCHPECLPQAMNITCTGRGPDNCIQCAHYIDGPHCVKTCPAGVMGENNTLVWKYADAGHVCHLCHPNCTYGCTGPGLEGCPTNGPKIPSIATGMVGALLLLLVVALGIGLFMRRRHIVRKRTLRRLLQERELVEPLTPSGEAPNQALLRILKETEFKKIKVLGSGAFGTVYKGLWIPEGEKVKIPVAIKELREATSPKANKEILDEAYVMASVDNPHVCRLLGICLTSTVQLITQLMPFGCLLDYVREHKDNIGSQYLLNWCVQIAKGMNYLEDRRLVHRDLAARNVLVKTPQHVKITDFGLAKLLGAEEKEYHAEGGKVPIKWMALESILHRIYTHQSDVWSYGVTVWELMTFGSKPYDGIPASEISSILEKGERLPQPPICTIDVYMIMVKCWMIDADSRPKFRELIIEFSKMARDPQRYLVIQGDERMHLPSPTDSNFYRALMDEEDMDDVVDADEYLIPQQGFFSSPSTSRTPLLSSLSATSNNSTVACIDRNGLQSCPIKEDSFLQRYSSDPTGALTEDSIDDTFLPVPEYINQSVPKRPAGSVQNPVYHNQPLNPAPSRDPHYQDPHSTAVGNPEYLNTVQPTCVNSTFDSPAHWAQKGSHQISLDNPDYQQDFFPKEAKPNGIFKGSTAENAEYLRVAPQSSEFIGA

- inhibition [3]: Dose-dependent effect
- inhibition [10]: Dose-dependent effect
- inhibition [12]: Dose-dependent effect
- inhibition [13]: Dose-dependent effect
Compound: FC(F)(F)c1ccc(CSc2nc(Nc3ccc(C(F)(F)F)cc3)c3ccccc3n2)cc1
- Activity (MCF7 [1]): 20.38%
- Activity (MDA-MB-231 [2]): 7.92%
- Activity (MDA-MB-231 [4]): 21.98%
- Activity (MDA-MB-231 [5]): 60.7%
- Activity (MCF7 [6]): 15.43%
- Activity (MCF7 [7]): Non-Toxic
- Activity (MDA-MB-231 [8]): Active
- Activity (MCF7 [9]): Dose-dependent effect
- Activity (MDA-MB-231 [11]): 6.56%
- Activity (MDA-MB-231 [14]): Non-Toxic
- Activity (MDA-MB-231 [15]): Non-Toxic
- Activity (MDA-MB-231 [16]): 28.04%
- Activity (MDA-MB-231 [17]): 2.6%
- Activity (MDA-MB-231 [18]): Active
- Activity (MDA-MB-231 [19]): 18.77%
- Activity (MCF7 [20]): 17.1%
- growth inhibition (GI) (MCF7 [21]): Active
- Activity (MDA-MB-231 [22]): 53%
- viability at 6 µM (MDA-MB-231 [23]): 66.5%
- Activity (MDA-MB-231 [24]): 10.6%
- Activity (MCF7 [25]): Active
- Activity (MDA-MB-231 [26]): Active
- Activity (MCF7 [27]): 75.03%
- Activity (MCF7 [28]): 20.44%
- Activity (MDA-MB-231 [29]): 20.7%
- Activity (MDA-MB-231 [30]): Active
- viability at 6 µM (MCF7 [31]): 70.5%
- viability at 2 µM (MDA-MB-231 [32]): 82.9%
- Activity (MCF7 [33]): 15%
- IC50 (PC-3): 7.88 µM
- Activity (MDA-MB-231 [34]): Non-Toxic
- Activity (MCF7 [35]): 3.28%
